Experimental data published in ChEMBL document CHEMBL3593233, “Caryophyllene sesquiterpenes from the marine-derived fungus Ascotricha sp. ZJ-M-5 by the one strain-many compounds strategy” (2014).

Tests used:
K562 = test: Growth inhibition of human K562 cells after 72 hrs by trypan blue assay; assay type: functional; settings: K562, 72 h
HL-60 = test: Growth inhibition of human HL60 cells after 72 hrs by trypan blue assay; assay type: functional; settings: HL-60, 72 h

Row | Structure (SMILES) | GI50 (K562) [µM] | GI50 (HL-60) [µM]
1 | CC(=O)O[C@H]1C/C(C)=C/[C@@H](O)[C@H](O)[C@H]2[C@H](O)O[C@]13[C@@H]2CC3(C)C | 10.1 | 6.9
2 | CO[C@@H]1[C@H]2[C@H](O)O[C@@]3([C@@H](OC(C)=O)C/C(C)=C/[C@H]1O)[C@@H]2CC3(C)C | 12.3 | 8.5
3 | CC(=O)O[C@H]1C/C(C)=C/[C@@H](O)/C=C(/CO)[C@H]2CC(C)(C)[C@]12O | > 100 | > 100
